Where “and” joins values, the source holds several entries; their conditions need not be identical. Equal values may be shown once. Inconclusive results and toxic doses are left out. Cut-off read from the data, not from the text of the source: active = T/C of 150% or more; inactive = T/C below 125%.
Test system: L1210 leukemia ip in BDF1 mice, survival T/C
Assay: NCI In Vivo Anticancer Drug Screen. Data for tumor model L1210 Leukemia (intraperitoneal) in B6D2F1 (BDF1) mice
Settings: endpoint: mean survival time, higher = longer survival
Method in brief: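 Mice bearing the transplanted tumor received compound or vehicle. Survival of the treated group was divided by that of the vehicle-treated control group to give the ratio.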

[1] = dose: 50.0 mg/kg/injection, schedule: Q01DX009 (ip), vehicle: saline
[2] = dose: 50.0 mg/kg/injection, schedule: Q04DX003 (ip), vehicle: saline
[3] = dose: 100.0 mg/kg/injection, schedule: Q01DX001 (ip), vehicle: saline
[4] = dose: 100.0 mg/kg/injection, schedule: Q01DX009 (ip), vehicle: saline
[5] = dose: 100.0 mg/kg/injection, schedule: Q04DX003 (ip), vehicle: saline
[6] = dose: 200.0 mg/kg/injection, schedule: Q01DX001 (ip), vehicle: saline
[7] = dose: 200.0 mg/kg/injection, schedule: Q01DX009 (ip), vehicle: saline
[8] = dose: 200.0 mg/kg/injection, schedule: Q04DX003 (ip), vehicle: saline
[9] = dose: 400.0 mg/kg/injection, schedule: Q01DX001 (ip), vehicle: saline
[10] = dose: 100.0 mg/kg/injection, schedule: Q04DX002 (ip), vehicle: Klucel (hydroxypropylcellulose) (HPC)
[11] = dose: 200.0 mg/kg/injection, schedule: Q04DX002 (ip), vehicle: Klucel (hydroxypropylcellulose) (HPC)
[12] = dose: 400.0 mg/kg/injection, schedule: Q04DX002 (ip), vehicle: Klucel (hydroxypropylcellulose) (HPC)
[13] = dose: 400.0 mg/kg/injection, schedule: Q04DX003 (ip), vehicle: saline
[14] = dose: 50.0 mg/kg/injection, schedule: Q01DX001 (ip), vehicle: carboxymethylcellulose (CMC)
[15] = dose: 100.0 mg/kg/injection, schedule: Q01DX001 (ip), vehicle: carboxymethylcellulose (CMC)
[16] = dose: 200.0 mg/kg/injection, schedule: Q01DX001 (ip), vehicle: carboxymethylcellulose (CMC)
[17] = dose: 400.0 mg/kg/injection, schedule: Q01DX001 (ip), vehicle: carboxymethylcellulose (CMC)

Measured: T/C

COc1cccc(N=Nc2c(N)nc(N)[nH]c2=O)c1
inactive: [1] 90 % of control | [2] 101 % of control | [3] 104 % of control | [4] 92 % of control | [5] 98 % of control | [6] 107 % of control | [7] 95 % of control | [8] 102 % of control | [9] 104 % of control

ClCc1cc(OCc2ccccc2)ccc1OCc1ccccc1
inactive: dose: 75.0 mg/kg/injection, schedule: Q04DX003 (ip), vehicle: Klucel (hydroxypropylcellulose) (HPC) 86 % of control | dose: 100.0 mg/kg/injection, schedule: Q01DX001 (ip), vehicle: Klucel (hydroxypropylcellulose) (HPC) 101 % of control | dose: 150.0 mg/kg/injection, schedule: Q04DX003 (ip), vehicle: Klucel (hydroxypropylcellulose) (HPC) 91 % of control | dose: 200.0 mg/kg/injection, schedule: Q01DX001 (ip), vehicle: Klucel (hydroxypropylcellulose) (HPC) 94 % of control | dose: 300.0 mg/kg/injection, schedule: Q04DX003 (ip), vehicle: Klucel (hydroxypropylcellulose) (HPC) 86 % of control | dose: 400.0 mg/kg/injection, schedule: Q01DX001 (ip), vehicle: Klucel (hydroxypropylcellulose) (HPC) 97 % of control

C1CCC2(CC1)COC1(OC2)OCC2(CCCCC2)CO1
inactive: [10] 97 % of control | [11] 101 % of control | [12] 90 % of control

O=C(COc1ccc(Cl)cc1)Nc1ccccc1Br
inactive: dose: 100.0 mg/kg/injection, schedule: Q04DX002 (ip), vehicle: saline + alcohol 96 % of control | dose: 200.0 mg/kg/injection, schedule: Q04DX002 (ip), vehicle: saline + alcohol 107 % of control | dose: 400.0 mg/kg/injection, schedule: Q04DX002 (ip), vehicle: saline + alcohol 103 % of control

CCOC(=O)CN(C)C#N
inactive: [4] 101 % of control | [5] 92 % of control | [7] 101 % of control | [8] 92 % of control | dose: 400.0 mg/kg/injection, schedule: Q01DX009 (ip), vehicle: saline 92 % of control | [13] 91 % of control

CCCCCCCCCCCCC(=O)N1CCCCC1
inactive: dose: 100.0 mg/kg/injection, schedule: Q04DX002 (ip), vehicle: saline 91 % of control | dose: 200.0 mg/kg/injection, schedule: Q04DX002 (ip), vehicle: saline 102 % of control

CCCSc1ccccc1N1CCNCC1
inactive: dose: 50.0 mg/kg/injection, schedule: Q01DX001 (ip), vehicle: saline 103 % of control | [3] 101 % of control | [6] 101 % of control | [9] 103 % of control

Cn1c[n+](C2OC(CO)C(O)C2O)c2nc(N)[nH]c(=O)c21 (configuration not stated)
inactive: [14] 92 % of control | [15] 92 % of control | [16] 97 % of control | [17] 93 % of control

S=C1SC2CCCCC2S1 (configuration not stated)
inactive: dose: 25.0 mg/kg/injection, schedule: Q04DX002 (ip), vehicle: Klucel (hydroxypropylcellulose) (HPC) 100 % of control | dose: 50.0 mg/kg/injection, schedule: Q04DX002 (ip), vehicle: Klucel (hydroxypropylcellulose) (HPC) 106 % of control | [10] 95 % of control | dose: 100.0 mg/kg/injection, schedule: Q04DX003 (ip), vehicle: Klucel (hydroxypropylcellulose) (HPC) 103 % of control | dose: 200.0 mg/kg/injection, schedule: Q04DX003 (ip), vehicle: Klucel (hydroxypropylcellulose) (HPC) 94 % of control | dose: 400.0 mg/kg/injection, schedule: Q04DX003 (ip), vehicle: Klucel (hydroxypropylcellulose) (HPC) 103 % of control

NC(=O)C1(Nc2ccc(-c3ccc(Br)cc3)cc2)CCCC1
inactive: [14] 95 % of control | [15] 86 % of control | [17] 86 % of control

Clc1ccc(OCc2sc3ccc(Cl)cc3c2CN2CCOCC2)cc1
inactive: dose: 100.0 mg/kg/injection, schedule: Q04DX003 (ip), vehicle: saline with Tween-80 91 % of control | dose: 200.0 mg/kg/injection, schedule: Q04DX003 (ip), vehicle: saline with Tween-80 90 % of control | dose: 400.0 mg/kg/injection, schedule: Q04DX003 (ip), vehicle: saline with Tween-80 91 % of control

COc1cc2c3c(c1)/C(=N\Nc1ccccc1)CCN3CCC2
inactive: dose: 6.25 mg/kg/injection, schedule: Q01DX009 (ip), vehicle: DMSO 90 % of control | dose: 12.5 mg/kg/injection, schedule: Q01DX009 (ip), vehicle: DMSO 91 % of control | dose: 25.0 mg/kg/injection, schedule: Q01DX009 (ip), vehicle: DMSO 93 % of control and 90 % of control | dose: 25.0 mg/kg/injection, schedule: Q04DX003 (ip), vehicle: DMSO 95 % of control | dose: 50.0 mg/kg/injection, schedule: Q04DX003 (ip), vehicle: DMSO 95 % of control | dose: 100.0 mg/kg/injection, schedule: Q04DX003 (ip), vehicle: DMSO 100 % of control | dose: 200.0 mg/kg/injection, schedule: Q04DX003 (ip), vehicle: gum acacia 92 % of control

CCC(C)C(C(=O)OCCC[N+]1(C)CCCCC1)c1ccccc1 (configuration not stated)
inactive: dose: 12.5 mg/kg/injection, schedule: Q01DX009 (ip), vehicle: saline 96 % of control | dose: 12.5 mg/kg/injection, schedule: Q04DX003 (ip), vehicle: saline 96 % of control | dose: 25.0 mg/kg/injection, schedule: Q01DX009 (ip), vehicle: saline 100 % of control | dose: 25.0 mg/kg/injection, schedule: Q04DX003 (ip), vehicle: saline 96 % of control | [1] 94 % of control | [2] 94 % of control

CCCCCCCCCCC[n+]1cccc(C#N)c1
inactive: dose: 5.0 mg/kg/injection, schedule: Q01DX009 (ip), vehicle: saline 101 % of control | dose: 10.0 mg/kg/injection, schedule: Q01DX001 (ip), vehicle: saline 94 % of control | dose: 10.0 mg/kg/injection, schedule: Q01DX009 (ip), vehicle: saline 93 % of control | dose: 10.0 mg/kg/injection, schedule: Q04DX003 (ip), vehicle: saline 98 % of control | dose: 20.0 mg/kg/injection, schedule: Q01DX001 (ip), vehicle: saline 101 % of control | dose: 20.0 mg/kg/injection, schedule: Q01DX009 (ip), vehicle: saline 95 % of control | dose: 20.0 mg/kg/injection, schedule: Q04DX003 (ip), vehicle: saline 93 % of control | dose: 40.0 mg/kg/injection, schedule: Q01DX001 (ip), vehicle: saline 108 % of control | dose: 40.0 mg/kg/injection, schedule: Q04DX003 (ip), vehicle: saline 95 % of control

O=C(O)c1cccc(Sc2ccccc2)c1
inactive: [15] 100 % of control | [16] 90 % of control | [17] 102 % of control

O=C1Nc2ccc(Br)cc2C1=Nc1ccc2c(c1)OCO2
inactive: [10] 100 % of control | [11] 95 % of control | [12] 100 % of control

CCCCCn1cnc2c(=S)nc[nH]c21
inactive: [14] 92 % of control | [15] 92 % of control | dose: 100.0 mg/kg/injection, schedule: Q01DX009 (ip), vehicle: acetone 93 % of control | [5] 92 % of control | [16] 97 % of control | dose: 200.0 mg/kg/injection, schedule: Q01DX009 (ip), vehicle: acetone 95 % of control | [8] 100 % of control | [17] 90 % of control | dose: 400.0 mg/kg/injection, schedule: Q01DX009 (ip), vehicle: acetone 93 % of control | [13] 103 % of control

Source: PubChem BioAssay AID248 (DTP/NCI, 2004)
